In US20090156825A1, “Fluorescent compounds that bind to histone deacetylase” (priority 2007, published 2009):
“Also recorded” adds a separate entry of the source.

Target: T1, HDAC1 (Homo sapiens, UniProt Q13547)
T1 construct: Flag
Experiment: Fluorescence polarization Kd determination of FITC-labeled compounds by HDAC1 titration
Assay type: binding
Conditions: for time for binding to come to equilibrium: FP read over time after adding the FITC-labeled compound to HDAC1; for binding mechanism (exponential fit of Kd app versus time): replot of Kd app values vs. time, 1-phase or 2-phase exponential fit
Method: Titrations of HDAC1 were set up in 96-well black, flat-bottom plates. The concentrations of HDAC1 varied from 5 to 200 nM (with COMPOUND 1 and COMPOUND 2) or 20 to 450 nM (with COMPOUND 3). At time zero, the FITC-labeled compound was added and the plate inserted into the Analyst HT for FP detection. The samples were read every 5 seconds through ˜10 minutes (COMPOUND 1) or 2 hours (COMPOUND 2 and COMPOUND 3). The data at each time point was converted from mP to […] and plotted in Prism using an equation for ligand binding taking ligand-depletion into consideration (Equations 1-3) (An example of which is given in FIG. 1A).
where Lt is total fluorescently-labeled compound concentration, Rt is total HDAC concentration, Kd is the dissociation constant for the ligand to HDAC, Ab is the anisotropy when 100% of the ligand is bound, and Af is the anisotropy when 100% of the ligand is free. The values determined by the data as plotted in Figure A are Kd^app, Ab, and Af.
After determining the Kd^app for each time point, the Kd^app was replotted versus time (FIG. 1B) to determine true steady-state Kd. […] The plateau value of this exponential decay defines the steady-state Kd value.

T1 sequence (Q13547 whole entry): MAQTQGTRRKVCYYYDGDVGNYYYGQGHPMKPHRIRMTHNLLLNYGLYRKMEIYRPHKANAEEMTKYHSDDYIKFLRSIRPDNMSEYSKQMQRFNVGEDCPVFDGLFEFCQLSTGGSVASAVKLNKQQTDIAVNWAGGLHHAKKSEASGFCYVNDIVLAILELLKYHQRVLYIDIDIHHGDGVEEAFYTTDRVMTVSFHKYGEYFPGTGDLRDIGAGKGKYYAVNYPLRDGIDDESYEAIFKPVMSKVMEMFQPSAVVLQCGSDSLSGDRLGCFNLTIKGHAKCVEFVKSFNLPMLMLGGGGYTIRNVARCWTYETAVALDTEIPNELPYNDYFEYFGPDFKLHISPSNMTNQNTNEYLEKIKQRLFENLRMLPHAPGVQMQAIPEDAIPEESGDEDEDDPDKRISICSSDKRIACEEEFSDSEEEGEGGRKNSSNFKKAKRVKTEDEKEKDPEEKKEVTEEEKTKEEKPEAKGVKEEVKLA

Kd (plateau of Kd app replotted versus time, HDAC1 5 to 200 nM, FP detection, read-out: true steady-state Kd) [µM]	SMILES	time for binding to come to equilibrium	binding mechanism (exponential fit of Kd app versus time)	binding mechanism (exponential fit of Kd app versus time) (listed as FITC-SAHA)
	Nc1ccc(-c2ccccc2)cc1NC(=O)c1ccc(CNC(=O)OCc2ccc(CNC(=S)Nc3ccc(-c4c5ccc(=O)cc-5oc5cc(O)ccc45)c(C(=O)O)c3)cc2)cc1 [COMPOUND 2, 5-{[({4-[({[(4-{[(4-aminobiphenyl-3-yl)amino]carbonyl}benzyl)amino]carbonyl}oxy)methyl]benzyl}amino)carbonothioyl]amino}-2-(6-hydroxy-3-oxo-3H-xanthen-9-yl)benzoic acid]	210 min	requires a 2-phase exponential curve; also recorded: bound slowly with an induced-fit mechanism	
0.016	O=C(CCCCCCC(=O)Nc1ccc(CNC(=S)Nc2ccc(-c3c4ccc(=O)cc-4oc4cc(O)ccc34)c(C(=O)O)c2)cc1)NO [COMPOUND 1, 5-({[(4-{[8-(hydroxyamino)-8-oxooctanoyl]amino}benzyl)amino]carbonothioyl}amino)-2-(6-hydroxy-3-oxo-3H-xanthen-9-yl)benzoic acid]	faster than could be measured by the instrument used	classical 1-step binding mechanism	fits 1-phase exponential curve quite well
